The record followed here is ChEMBL document CHEMBL4840377, “Colletofragarone A2 and Colletoins A-C from a Fungus Colletotrichum sp. Decrease Mutant p53 Levels in Cells” (J Nat Prod, 2021).

A word on the pIC50: it is −log10 of the IC50, conventionally taken in molar units. Read a low pIC50 as a large IC50.

Experiment [1] deals with SAOS-2. Kind of experiment: Cytotoxicity against human SAOS-2 cells harbouring p53 R175H mutant incubated for 3 days by MTT assay. It is filed as functional, cell-based. The settings on record: SAOS-2, 72 h. In general terms: Tetrazolium assays rely on reduction of a dye to a coloured formazan, in cell work by metabolically active cells.
The nature of experiment [2]: Reduction in p53 R175H mutant protein level in human SAOS-2 cells assessed as ratio of test compound fluorescence to control fluorescence at 2 uM measured after 2 hrs by Hoechst 33342 staining based immunofluorescence assay. It is filed as functional.

SMILES strings stand for the structures. pIC50: −log10 of the molar value.

`C/C=C/C=C/C=C/C1=C2C(=O)O[C@@H](C)C[C@@H](O)C[C@@H](O)[C@@H]3C(=O)C[C@@H](O)[C@H](O1)[C@H]23` gave a pIC50 in experiment [1] of 4.68. In experiment [1], `C/C=C/C=C/C=C/C1=C2C(=O)O[C@@H](C)C[C@@H](O)C[C@@H](O)[C@H]3C(=O)C[C@@H](O)[C@H](O1)[C@H]23` showed a pIC50 of 4.92.

Consider `C/C=C/C=C\C=C\C1=C2C(=O)O[C@@H](C)CCCC[C@@H]3C(=O)C=C[C@H](O1)[C@H]23`, for which the Ratio in experiment [2] is reported as 0.57. For the same compound, the pIC50 in experiment [1] is 6.44. Take `C/C=C/C=C/C=C/C1=C2C(=O)O[C@@H](C)C[C@@H](O)C[C@@H](O)[C@@H]3C(=O)C=C[C@H](O1)[C@H]23`: the Ratio in experiment [2] worked out at 0.4. Further, in experiment [1], the pIC50 was 6.46.
